system: not listed separately; experiment: Rat brain uptake, left carotid artery perfusion; type: in vivo; conditions: 30 seconds perfusion in phosphate buffered saline pH 7.4; N of 4 rats
Excerpt: Experiments that evaluate the rat brain penetration of test compounds use a perfusion system where the left carotid artery is cannulated and the branch arteries are tied off. The test compound plus internal controls are perfused for 30 seconds into the left hemisphere in phosphate buffered saline at pH 7.4. The internal controls are atenolol (with low brain uptake) and antipyrine (with high brain uptake). After a 30 second washout with perfusate, the brain is removed surgically. The left hemisphere is homogenized; test compounds (plus internal controls) are extracted from brain homogenate, and analyzed using LC/MS/MS to determine the concentration of test compound and internal controls in the brain.

SMILES	Rat Brain Uptake Rate
Cc1ccc2c(O)noc2c1 [drawing 48]	199 pmol/g brain/sec
Oc1noc2cc(Cl)ccc12 [drawing 49]	162 pmol/g brain/sec

target: T1, D-Serine's binding site on the NMDA receptor (Rattus norvegicus, UniProt P35439); experiment: NMDA receptor affinity, [3H]MDL105,519 radioligand binding, rat cerebral cortex membranes; conditions: tested at 100 μM, read-out: inhibition of specific [3H]MDL105,519 binding
T1 construct: membranes prepared from rat cerebral cortex; from tissue; host or cells: rat cerebral cortex membranes
Experimental: To measure the affinity of the compounds reported herein for D-Serine's binding site on the NMDA receptor (also known as the “Glycine site” or the “strychnine-insensitive glycine site”), a radioligand-binding assay was performed with membranes prepared from rat cerebral cortex. The radioactive ligand was [3H]MDL105,519. The amount of radioactivity displaced by the compounds was assessed by scintillation counting. Non-specific binding is accounted for in the presence of 1 mM Glycine. Affinities are calculated from the values of % inhibition of specific [3H]MDL105,519 binding by the test compounds.

SMILES	inhibition at 100 µM
O=C(O)c1cc2ccccc2[nH]1 [INDOLE-2-CARBOXYLIC ACID, reference compound]	77%
Oc1noc2cc(Cl)ccc12 [drawing 47]	< 10%

target: Purified pig DAAO (Sus scrofa, UniProt P00371); experiment: In vitro measurements of DAAO activity (Amplex Red H2O2 fluorescence; alternative phenylglycine absorbance assay); type: biochemical; conditions: read-out: Inhibition of DAAO, IC50
Experimental: Purified pig DAAO, added to a buffered mixture of 50 mM D-Serine produces H202 in stoichiometric amounts for each D-Serine molecule oxidized. H202 production can be monitored with a commercially available dye Amplex Red, which in the presence of H202, is converted to the fluorescent product resorufin. For each described inhibitor, the fluorescence was also measured during additions of 80 μM H202 in the absence of DAAO, to control for artifactual inhibition of the dye conversion, and to quantify the amount of H202 produced. In an alternative assay of DAAO activity, the purified pig DAAO is added to buffered mixture of 1 mM phenylglycine in the presence of compounds. The activity of DAAO is monitored spectrophotometrically by its enzymatic conversion of phenylglycine to benzoylformic acid with optical absorption at 252 nm.
Inhibitors of DAAO's enzymatic cycle were serially diluted to reduce the level of inhibition. The parameters of a non-linear equation were adjusted to fit the resulting series of inhibition levels to extrapolate the concentration of compound where 50% inhibition is achieved (IC50). These numbers are averaged for the number (n) of independent measurements (on separate days) of the inhibition.

Purified pig DAAO, sequence (P00371 whole entry): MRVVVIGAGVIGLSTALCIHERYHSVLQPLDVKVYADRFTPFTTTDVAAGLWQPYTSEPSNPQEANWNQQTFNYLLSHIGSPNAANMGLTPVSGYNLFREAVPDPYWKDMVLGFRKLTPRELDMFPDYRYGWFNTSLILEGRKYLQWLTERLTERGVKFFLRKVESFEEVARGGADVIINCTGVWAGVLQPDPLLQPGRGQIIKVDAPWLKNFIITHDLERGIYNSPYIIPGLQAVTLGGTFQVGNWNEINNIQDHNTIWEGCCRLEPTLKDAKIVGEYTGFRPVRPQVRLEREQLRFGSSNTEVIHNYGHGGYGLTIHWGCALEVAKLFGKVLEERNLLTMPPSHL

SMILES	IC50
Oc1noc2cccc(F)c12	< 10 µM
Oc1cccc2onc(O)c12	> 100 µM
COc1cccc2onc(O)c12	< 100 µM
Oc1noc2cc(Br)c(Br)cc12	< 0.1 µM
Oc1noc2cc(Cl)c(Cl)cc12	< 0.1 µM
Oc1noc2cc(Cl)c(Br)cc12	< 0.1 µM
Cc1cc2onc(O)c2cc1Br	< 0.1 µM
Oc1noc2cc(F)ccc12	< 1 µM
Oc1ccc2c(O)noc2c1	< 10 µM
COc1ccc2c(O)noc2c1	< 10 µM
Oc1noc2c(Cl)cccc12	> 100 µM
Oc1noc2c(F)cccc12	< 100 µM
Oc1noc2c(O)cccc12	< 100 µM
Oc1noc2cc(Br)c(Cl)cc12	< 0.1 µM
Cc1cc2onc(O)c2cc1Cl	< 0.1 µM
Oc1noc2ccc(Cl)cc12	< 1 µM
Oc1ccc2onc(O)c2c1	> 100 µM
Cc1cc2onc(O)c2cc1I	< 0.1 µM
Oc1noc2ccc(I)cc12	< 10 µM

SMILES	IC50
COc1ccc2onc(O)c2c1	< 10 µM
Cc1ccc2onc(O)c2c1	< 10 µM
Oc1noc2cc(Br)ccc12	< 1 µM
Oc1noc2ccc(CCc3ccccc3)cc12	< 100 µM
COc1cccc2c(O)noc12	< 100 µM
N#Cc1ccc2onc(O)c2c1	< 100 µM
Oc1noc2ccc(OCc3ccccc3)cc12	< 10 µM
Oc1noc2ccc(Br)cc12	< 1 µM
Oc1noc2ccc(F)cc12	< 1 µM
Oc1noc2ccccc12	< 1 µM
O=C(Nc1ccc2c(O)noc2c1)OCc1ccccc1	> 100 µM
O=C(Nc1ccc2onc(O)c2c1)OCc1ccccc1	> 100 µM
Cc1cccc2c(O)noc12	> 100 µM
Oc1noc2cc(OCc3ccccc3)ccc12	> 100 µM
O=C(O)c1cc2ccccc2[nH]1 [INDOLE-2-CARBOXYLIC ACID, reference compound]	< 10 µM
O=C(O)c1ccc[nH]1 [PYRROLE-2-CARBOXYLIC ACID, reference compound]	< 10 µM
Cc1ccc2c(O)noc2c1 [drawing 22]	< 1 µM
Oc1noc2cc(Cl)ccc12 [drawing 38]	< 0.1 µM

— patent US7166725B2, “Benzo[d]isoxazol-3-ol DAAO inhibitors” (Sepracor Inc., priority 2003, dated 2007)
